Patent publication US20220289679A1, “HETEROCYCLIC COMPOUND” (Takeda Pharmaceutical Company Limited, priority 2019, published 2022)

target: T1, human GCS (glucosylceramide synthase) (Homo sapiens, UniProt Q16739); experiment: Glucosylceramide Synthase (GCS) Assay; format: biochemical; conditions: test compound 10 μM; microsome fraction of Expi293F cells expressing human GCS; 1.7 μM UDP-glucose, 3 μM C8 ceramide; room temperature 60 min; C8 glucosylceramide by Rapidfire MS/MS; read-out: GCS enzyme inhibitory rate at 10 μM (%)
T1 construct: made in house; host or cells: Expi293F cells (transient expression; microsome fraction)
T1 sequence (Q16739 1-394): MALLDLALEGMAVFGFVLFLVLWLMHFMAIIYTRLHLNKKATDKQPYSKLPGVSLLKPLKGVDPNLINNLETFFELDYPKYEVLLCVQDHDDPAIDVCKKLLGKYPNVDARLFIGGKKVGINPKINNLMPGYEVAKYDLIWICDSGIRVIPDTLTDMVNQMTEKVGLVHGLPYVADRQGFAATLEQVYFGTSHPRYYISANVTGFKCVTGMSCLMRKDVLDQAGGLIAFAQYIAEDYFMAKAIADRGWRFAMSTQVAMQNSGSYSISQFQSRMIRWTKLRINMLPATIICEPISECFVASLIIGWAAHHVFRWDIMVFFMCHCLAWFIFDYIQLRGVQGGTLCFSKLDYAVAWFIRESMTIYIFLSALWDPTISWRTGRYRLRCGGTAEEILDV
Outline: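 Test compounds were run at a final 10 μM against liposomal C8 ceramide (3 μM) and UDP-glucose at its Km (1.7 μM). Human GCS came as microsomes from transfected Expi293F cells, incubated 60 min at room temperature, pH 7.5. Product measured by RapidFire MS/MS; 0% and 100% inhibition were DMSO and no-enzyme wells.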

Row | SMILES | inhibition at 10 µM [%]
1 | CC(O)c1cc(C(=O)Nc2ccc(OC(F)F)cc2)c(=O)n(-c2ccccc2OCC(F)(F)F)n1 (racemic) [Example 199, rac-N-[4-(difluoromethoxy)phenyl]-6-(1-hydroxyethyl)-3-oxo-2-[2-(2,2,2-trifluoroethoxy)phenyl]-2,3-dihydropyridazine-4-carboxamide] | 100
2 | CC(O)c1ccc(NC(=O)c2ccnn(-c3ccccc3OCC(F)(F)F)c2=O)nc1 (racemic) [Example 140, rac-N-[5-(1-hydroxyethyl)pyridin-2-yl]-3-oxo-2-[2-(2,2,2-trifluoroethoxy)phenyl]-2,3-dihydropyridazine-4-carboxamide] | 87
3 | O=C(Nc1ccn(CC(F)(F)F)n1)c1cccn(-c2ccccc2OCC(F)(F)F)c1=O [Example 22, 2-oxo-1-[2-(2,2,2-trifluoroethoxy)phenyl]-N-[1-(2,2,2-trifluoroethyl)-1H-pyrazol-3-yl]-1,2-dihydropyridine-3-carboxamide] | 77
4 | CC(C)(O)c1ccc(NC(=O)c2cn(C3CCOC3)nc(-c3ccccc3OCC(F)F)c2=O)cc1 (racemic) [Example 193, rac-6-[2-(2,2-difluoroethoxy)phenyl]-N-[4-(2-hydroxypropan-2-yl)phenyl]-5-oxo-2-(oxolan-3-yl)-2,5-dihydropyridazine-4-carboxamide] | 99
5 | Cc1cc(C(=O)Nc2c(F)cc(C(C)(C)O)cc2F)c(=O)n(-c2ccccc2OCC(F)F)n1 [Example 150, 2-[2-(2,2-difluoroethoxy)phenyl]-N-[2,6-difluoro-4-(2-hydroxypropan-2-yl)phenyl]-6-methyl-3-oxo-2,3-dihydropyridazine-4-carboxamide] | 94
6 | COc1cc(F)ccc1-n1cccc(C(=O)Nc2ccc(Oc3ccccc3)cc2)c1=O [Example 3, 1-(4-fluoro-2-methoxyphenyl)-2-oxo-N-(4-phenoxyphenyl)-1,2-dihydropyridine-3-carboxamide] | 92
7 | Cc1cc(C(=O)Nc2ccc(C(C)(C)O)cc2F)c(=O)n(-c2ccccc2OCC(F)F)n1 [Example 146, 2-[2-(2,2-difluoroethoxy)phenyl]-N-[2-fluoro-4-(2-hydroxypropan-2-yl)phenyl]-6-methyl-3-oxo-2,3-dihydropyridazine-4-carboxamide] | 100
8 | O=C(Nc1cnc(C(F)(F)F)nc1)c1cccn(-c2ccc(F)cc2OCC(F)(F)F)c1=O [Example 36, 1-[4-fluoro-2-(2,2,2-trifluoroethoxy)phenyl]-2-oxo-N-[2-(trifluoromethyl)pyrimidin-5-yl]-1,2-dihydropyridine-3-carboxamide] | 86
9 | O=C(Nc1ccc(C(O)(C(F)F)C(F)F)nc1)c1cn(C2COC2)nc(-c2ccccc2OCC(F)F)c1=O [Example 187, 6-[2-(2,2-difluoroethoxy)phenyl]-2-(oxetan-3-yl)-5-oxo-N-[6-(1,1,3,3-tetrafluoro-2-hydroxypropan-2-yl)pyridin-3-yl]-2,5-dihydropyridazine-4-carboxamide] | 100

Other lines, results leading:

Row | inhibition at 10 µM [%] | SMILES
10 | 75 | COCCOc1cc(F)ccc1-n1cccc(C(=O)Nc2ccc(OCC(F)(F)F)nc2)c1=O [Example 27, 1-[4-fluoro-2-(2-methoxyethoxy)phenyl]-2-oxo-N-[6-(2,2,2-trifluoroethoxy)pyridin-3-yl]-1,2-dihydropyridine-3-carboxamide]
11 | 100 | CC(C)(O)c1ccc(NC(=O)c2ccnn(-c3ccccc3OCC(F)(F)F)c2=O)c(F)c1 [Example 148, N-[2-fluoro-4-(2-hydroxypropan-2-yl)phenyl]-3-oxo-2-[2-(2,2,2-trifluoroethoxy)phenyl]-2,3-dihydropyridazine-4-carboxamide]
12 | 100 | O=C(Nc1ccc(C(O)(C(F)F)C(F)F)cc1)c1ccnn(-c2ccccc2OCC(F)(F)F)c1=O [Example 155, 3-oxo-N-[4-(1,1,3,3-tetrafluoro-2-hydroxypropan-2-yl)phenyl]-2-[2-(2,2,2-trifluoroethoxy)phenyl]-2,3-dihydropyridazine-4-carboxamide]
13 | 97 | Cc1cccc(OCC(F)(F)F)c1-n1cccc(C(=O)Nc2ccc(C(C)(C)O)cc2)c1=O [Example 68, N-[4-(2-hydroxypropan-2-yl)phenyl]-1-[2-methyl-6-(2,2,2-trifluoroethoxy)phenyl]-2-oxo-1,2-dihydropyridine-3-carboxamide]
14 | 99 | O=C(Nc1ccc(C2(O)CCC2)cc1)c1cccn(-c2ccc(F)cc2OCC(F)(F)F)c1=O [Example 97, 1-[4-fluoro-2-(2,2,2-trifluoroethoxy)phenyl]-N-[4-(1-hydroxycyclobutyl)phenyl]-2-oxo-1,2-dihydropyridine-3-carboxamide]
15 | 100 | CC(C)(O)c1ccc(NC(=O)c2cn(C3CC3)nc(-c3ccccc3OCC(F)F)c2=O)cc1 [Example 169, 2-cyclopropyl-6-[2-(2,2-difluoroethoxy)phenyl]-N-[4-(2-hydroxypropan-2-yl)phenyl]-5-oxo-2,5-dihydropyridazine-4-carboxamide]
16 | 85 | N#Cc1cc(F)ccc1-n1cccc(C(=O)Nc2ccc(OCC(F)(F)F)nc2)c1=O [Example 52, 1-(2-cyano-4-fluorophenyl)-2-oxo-N-[6-(2,2,2-trifluoroethoxy)pyridin-3-yl]-1,2-dihydropyridine-3-carboxamide]
17 | 100 | CC(C)(C#N)c1ccc(NC(=O)c2cccn(-c3ccccc3OCC(F)(F)F)c2=O)cn1 [Example 88, N-[6-(2-cyanopropan-2-yl)pyridin-3-yl]-2-oxo-1-[2-(2,2,2-trifluoroethoxy)phenyl]-1,2-dihydropyridine-3-carboxamide]
18 | 99 | O=C(Nc1ccc(C(O)(C(F)F)C(F)F)nc1)c1cccn(-c2cccnc2OCC(F)(F)F)c1=O [Example 123, 2-oxo-N-[6-(1,1,3,3-tetrafluoro-2-hydroxypropan-2-yl)pyridin-3-yl]-2′-(2,2,2-trifluoroethoxy)-2H-[1,3′-bipyridine]-3-carboxamide]
19 | 71 | N#CCc1ccc(NC(=O)c2cccn(-c3ccc(F)cc3OCC(F)(F)F)c2=O)cn1 [Example 80, N-[6-(cyanomethyl)pyridin-3-yl]-1-[4-fluoro-2-(2,2,2-trifluoroethoxy)phenyl]-2-oxo-1,2-dihydropyridine-3-carboxamide]
20 | 97 | O=C(Nc1ccc(C(F)F)nc1)c1cccn(-c2ccc(F)cc2OCC(F)(F)F)c1=O [Example 49, N-[6-(difluoromethyl)pyridin-3-yl]-1-[4-fluoro-2-(2,2,2-trifluoroethoxy)phenyl]-2-oxo-1,2-dihydropyridine-3-carboxamide]
21 | 97 | O=C(Nc1ccn(-c2ccc(F)cc2)n1)c1cccn(-c2ccccc2OCC(F)(F)F)c1=O [Example 12, N-[1-(4-fluorophenyl)-1H-pyrazol-3-yl]-2-oxo-1-[2-(2,2,2-trifluoroethoxy)phenyl]-1,2-dihydropyridine-3-carboxamide]
22 | 99 | O=C(Nc1ccc(OCC(F)(F)F)nc1)c1cccn(-c2ccc(F)cc2OCC(F)F)c1=O [Example 101, 1-[2-(2,2-difluoroethoxy)-4-fluorophenyl]-2-oxo-N-[6-(2,2,2-trifluoroethoxy)pyridin-3-yl]-1,2-dihydropyridine-3-carboxamide]
